Measurements from US11452731B2, “Method of treating and preventing loss of cognition” (ENDORECHERCHE, INC., priority 2009, dated 2022).
“Also recorded” adds a separate entry of the source. Like-named read-outs stand apart in the source and are kept apart here.

What was measured:
[1] = Clinical trial ERC-213: DHEA vaginal suppositories for 7 days, maturation index and vaginal pH in postmenopausal women (Example 11); format: in vivo
Procedure: Data are expressed as means±SEM (n=9 or 10). *, p<0.05, **, p<0.01, Data on Day 7 versus Data on Day 1.
The primary objective of that study was measurement of the maturation value of the vaginal epithelial cells following daily intravaginal application of DHEA. Forty postmenopausal women were randomized to receive a daily dose of one ovule of the following DHEA concentrations: 0.0%, 0.5% (6.5 mg of DHEA/ovule), 1.0% (13 mg of DHEA/ovule) or 1.8% (23.4 mg of DHEA/ovule) for 7 days. The systemic bioavailability of DHEA and its metabolites were also measured.

[2] = 9-month treatment with DHEA and/or EM-800 in the rat: urinary and serum markers of bone metabolism; format: in vivo
Source text: It is particularly important to indicate that the combination of DHEA and EM-800 exerted unexpected beneficial effects on important biochemical parameters of bone metabolism. […] Moreover, no effect of DHEA could be detected on daily urinary calcium or phosphorus excretion (Luo et al., 1997). EM-800 decreased the urinary hydroxyproline/creatinine ratio by 48% while, similarly to DHEA, no effect of EM-800 was seen on urinary calcium or phosphorus excretion. EM-800, moreover, had no effect on serum alkaline phosphatase activity, a marker of bone formation while DHEA increased the value of the parameter by about 75% (Luo et al., 1997).

[3] = test system: MCF-7 human breast cancer cells; assay: Proliferation (DNA content) of human breast cancer MCF-7 cells (Example 7); format: cell-based; conditions: for IC50: Homo sapiens, read-out: Inhibition of 1 nM E2 stimulation of DNA by tested compounds IC50
Source text: MCF-7 human breast cancer cells were obtained from the American Type Culture Collection #HTB 22 at passage 147 and routinely grown in phenol red-free Dulbecco's Modified Eagle's-Ham's F12 medium, the supplements mentioned above and 5% FBS. The MCF-7 human breast adenocarcinoma cell line was derived from the pleural effusion of a patient. MCF-7 cells were used between passages 148 and 165 and subcultured weekly
Thereafter, medium was replaced with fresh medium containing the indicated concentrations of compounds diluted from 1000×stock solutions in 99% redistilled ethanol in the presence or absence of E2. Control cells received only the ethanolic vehicle (0.1% EtOH, v/v). Cells were incubated for the specified time intervals with medium changes at 2- or 3-day intervals. Cell number was determined by measurement of DNA content.
All results are expressed as means±SEM.

[4] = test system: ZR-75-1 human breast cancer xenografts; assay: Tamoxifen and EM-652.HCl alone or combined on growth of ZR-75-1 xenografts in nude mice (FIG. 7); format: in vivo; conditions: hydrochloride
[5] = 26-week treatment of ovariectomized rats: lumbar spine BMD, total body fat, serum cholesterol, ALP (Example 4, experiment 2); format: in vivo, rat; conditions: OVX rats, 26 weeks
Procedure: Ten to twelve week-old female Sprague-Dawley rats (Crl:CD(SD)Br) (Charles River Laboratory, St-Constant, Canada) weighing approximately 220-270 g at start of treatment were used. […] The animals were housed individually and were allowed free access to tap water and a pelleted certified rodent feed (Lab Diet 5002, Ralston Purina, St-Louis, Mo.). Experiments were conducted in an animal facility approved by the Canadian Council on Animal Care (CCAC) and the Association for Assessment and Accreditation of Laboratory Animal Care (AAALAC) in accordance with the CCAC Guide for Care and Use of Experimental Animals. […] Treatments were initiated on day 2 of the study and were performed once daily during 26 weeks. In both experiments, animals not receiving a test article were treated with the appropriate vehicle alone during the same period. […] QDR 4500A, Hologic, Waltham, Mass.) and a Regional High Resolution Scan software. […] Samples were processed for serum preparation and frozen at -80° C. until assay. Serum cholesterol levels and alkaline phospatase activity (ALP) were determined using the Boehringer Mannheim Diagnostic Hitachi 911 Analyzer (Boehringer Mannheim Diagnostic Laboratory Systems).

[6] = DHEA 10 mg, EM-800 75 μg, alone or combined
[7] = Premarin 0.25 mg/kg, SERMs 2.5 mg/kg

Structure (SMILES): C[C@]12CC[C@H](O)CC1=CC[C@@H]1[C@@H]2CC[C@]2(C)C(=O)CC[C@@H]12 [DHEA, dehydroepiandrosterone]
- increase of maturation index, Day 7 versus Day 1 ([1]; 0.5% DHEA vaginal suppository daily): 107%
- Vaginal pH ([1]; 0.5% DHEA, Day 1 (before)): 6.29±0.21
- Vaginal pH ([1]; 0.5% DHEA, Day 7): 5.75±0.27
- increase of maturation index, Day 7 versus Day 1 ([1]; 1.0% DHEA vaginal suppository daily): 75%
- Vaginal pH ([1]; 1.0% DHEA, Day 1 (before)): 6.47±0.23
- Vaginal pH ([1]; 1.0% DHEA, Day 7): 5.76±0.22
- increase of maturation index, Day 7 versus Day 1 ([1]; 1.8% DHEA vaginal suppository daily): 150%
- Vaginal pH ([1]; 1.8% DHEA, Day 1 (before)): 6.53±0.25
- Vaginal pH ([1]; 1.8% DHEA, Day 7): 5.86±0.28
- decrease of urinary hydroxyproline/creatinine ratio (marker of bone resorption) [2]: did not affect; also recorded: did not show any effect
- effect on daily urinary calcium or phosphorus excretion [2]: no effect
- increase of serum alkaline phosphatase activity (marker of bone formation) [2]: about 75%
- Serum tALP [2, 6]: 198.38 ± 30.76 IU/L
- Urine HP/Cr [2, 6]: 14.02 ± 1.59 μmol/mmol
- Urine calcium [2, 6]: 25.87 ± 3.54 μmol/24 h/100 g
- Urine phosphorus [2, 6]: 151.41 ± 14.57 μmol/24 h/100 g

Structure (SMILES): CC1=C(c2ccc(O)cc2)[C@H](c2ccc(OCCN3CCCCC3)cc2)Oc2cc(O)ccc21.Cl [EM-652.HCl, (S)-(+)-7-hydroxy-3-(4′-hydroxyphenyl)-4-methyl-2-(4″-(2′″-piperidinoethoxy)phenyl)-2H-1-benzopyran hydrochloride]
- IC50 ([3]; MCF7, MCF-7, Experiment 1): 0.796 nM
- IC50 ([3]; MCF7, MCF-7, Experiment 2): 0.205 nM
- Maximal stimulation of DNA by tested compounds % of 1 nM E2 stimulation ([3]; MCF-7, Experiment 1): N.S.
- Stimulation of DNA by tested compounds % of 1 nM E2 stimulation ([3]; MCF-7, Experiment 2): N.S.
- effect on growth of ZR-75-1 xenografts [4]: did not exert any stimulatory effect; also recorded: no effect on tumor growth
- ALP [5]: 78 ± 4 IU
- CHOLESTEROL (serum) [5]: 0.98 ± 0.06 mmol/L
- TOTAL FAT [5]: 27.7 ± 1.4 %
- reversal of the fat increase induced by estrogen deficiency [5]: 78%
- LUMBAR SPINE BMD [5, 7]: 0.2311 ± 0.0040 g/cm^2
- LUMBAR SPINE Prevention of Bone Loss [5, 7]: 62%
